Results: patent US10183014B2, “Ocular formulations for drug-delivery and protection of the anterior segment of the eye” (PanOptica, Inc., priority 2014, dated 2019)

Key:
[1] = PK with topical ocular Compound-I in sodium phosphate-based Gel Drop; assay type: in vivo, Dutch-Belted rabbits; conditions: Dutch-Belted, rabbit, Gel Drop 6 mg/ml, 3x per day, 4 days, 1 hour after last dose
From the text: The Gel Drop of Compound-I was applied to eyes of Dutch-belted rabbits.

[2] = Ocular toxicology studies; assay type: in vivo, beagle dogs
From the text: Retinal function was normal in all test article and vehicle treated groups during full-field electroretinograms performed in rabbits.

[3] = biological target: FGFR-2 (Homo sapiens, UniProt P21802); test: In vitro inhibition of tyrosine kinases; assay type: biochemical
Sequence of FGFR-2 (P21802 22-821, species assumed): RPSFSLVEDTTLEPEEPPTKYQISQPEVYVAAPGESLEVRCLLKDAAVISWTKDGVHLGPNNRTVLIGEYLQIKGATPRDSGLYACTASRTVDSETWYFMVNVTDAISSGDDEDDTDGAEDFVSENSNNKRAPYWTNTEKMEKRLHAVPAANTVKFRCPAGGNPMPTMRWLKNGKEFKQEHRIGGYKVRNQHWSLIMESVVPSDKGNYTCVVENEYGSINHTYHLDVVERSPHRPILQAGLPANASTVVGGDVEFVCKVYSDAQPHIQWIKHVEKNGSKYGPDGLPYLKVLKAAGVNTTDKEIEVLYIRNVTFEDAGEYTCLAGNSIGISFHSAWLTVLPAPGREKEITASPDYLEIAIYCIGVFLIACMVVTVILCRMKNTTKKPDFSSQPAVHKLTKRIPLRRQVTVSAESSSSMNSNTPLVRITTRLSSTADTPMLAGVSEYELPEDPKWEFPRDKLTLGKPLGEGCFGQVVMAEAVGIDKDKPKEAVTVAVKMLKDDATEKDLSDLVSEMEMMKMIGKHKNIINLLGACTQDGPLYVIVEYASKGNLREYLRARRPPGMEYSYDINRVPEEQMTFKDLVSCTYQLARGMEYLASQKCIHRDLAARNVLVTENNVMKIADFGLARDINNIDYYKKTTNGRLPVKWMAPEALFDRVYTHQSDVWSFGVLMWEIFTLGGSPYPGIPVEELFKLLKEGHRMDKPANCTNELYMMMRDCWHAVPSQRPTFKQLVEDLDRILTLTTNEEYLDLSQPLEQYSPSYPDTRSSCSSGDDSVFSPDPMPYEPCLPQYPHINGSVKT

[4] = biological target: KDR (VEGFR-2) (Homo sapiens, UniProt P35968); test: In vitro inhibition of tyrosine kinases; assay type: biochemical; conditions: 300 nM (170.67 ng/mL)
Sequence of KDR (VEGFR-2) (P35968 20-1356): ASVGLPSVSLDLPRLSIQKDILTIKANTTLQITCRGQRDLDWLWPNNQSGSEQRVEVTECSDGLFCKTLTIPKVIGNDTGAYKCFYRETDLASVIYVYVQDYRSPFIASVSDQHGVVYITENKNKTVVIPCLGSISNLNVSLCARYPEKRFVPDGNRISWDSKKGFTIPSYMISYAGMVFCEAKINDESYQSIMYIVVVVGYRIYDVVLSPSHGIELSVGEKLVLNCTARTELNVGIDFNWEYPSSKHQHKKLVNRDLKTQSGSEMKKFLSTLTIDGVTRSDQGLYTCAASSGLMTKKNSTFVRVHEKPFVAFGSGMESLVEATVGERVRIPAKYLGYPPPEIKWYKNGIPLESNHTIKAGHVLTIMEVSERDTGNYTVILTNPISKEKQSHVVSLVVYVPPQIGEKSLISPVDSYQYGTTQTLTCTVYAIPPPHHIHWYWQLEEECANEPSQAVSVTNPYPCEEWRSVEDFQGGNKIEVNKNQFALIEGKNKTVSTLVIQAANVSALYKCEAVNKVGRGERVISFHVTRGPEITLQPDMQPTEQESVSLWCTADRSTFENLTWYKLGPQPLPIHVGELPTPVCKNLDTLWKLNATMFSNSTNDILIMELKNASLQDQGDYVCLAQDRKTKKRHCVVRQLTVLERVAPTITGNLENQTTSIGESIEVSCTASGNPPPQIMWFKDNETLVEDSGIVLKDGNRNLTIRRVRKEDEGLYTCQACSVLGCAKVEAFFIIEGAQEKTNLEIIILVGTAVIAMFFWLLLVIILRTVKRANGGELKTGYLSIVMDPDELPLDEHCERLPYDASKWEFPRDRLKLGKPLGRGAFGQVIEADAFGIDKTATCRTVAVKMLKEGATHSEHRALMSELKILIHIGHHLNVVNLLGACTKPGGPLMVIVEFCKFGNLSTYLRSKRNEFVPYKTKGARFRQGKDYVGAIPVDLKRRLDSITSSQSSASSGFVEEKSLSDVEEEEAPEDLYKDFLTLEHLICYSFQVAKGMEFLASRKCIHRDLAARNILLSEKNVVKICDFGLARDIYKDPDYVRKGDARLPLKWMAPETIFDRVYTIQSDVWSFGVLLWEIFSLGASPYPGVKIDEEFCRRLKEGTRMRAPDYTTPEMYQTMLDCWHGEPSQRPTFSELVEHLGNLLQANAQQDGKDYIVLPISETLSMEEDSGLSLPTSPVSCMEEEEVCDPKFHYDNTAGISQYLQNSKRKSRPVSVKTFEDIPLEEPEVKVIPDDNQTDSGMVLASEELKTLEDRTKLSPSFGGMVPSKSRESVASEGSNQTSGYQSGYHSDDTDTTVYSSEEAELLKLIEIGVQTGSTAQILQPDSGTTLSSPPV

[5] = system: pathologic angiogenesis; test: Pathologic angiogenesis, murine cornea model, systemic administration; assay type: in vivo
[6] = Ocular pharmacokinetics of formulations, Example 20-5; assay type: in vivo, Dutch Belted rabbits
Method: The study design (Table 19-1) consisted of forty-seven (47) Dutch Belted rabbits, each receiving a 30 μL bilateral topical ocular dose. Various suspension formulations of the present application were evaluated and compared against a cyclodextrin-based eye drops solution (Control Group 1, Table 19-1). Formula II or Compound-I was used in the test suspensions as well as the Eye Drops solution.
Ocular sampling occurred one hour following the first daily dose on Day 5 for all groups. Whole blood samples using K2EDTA as an anticoagulant were collected from all animals on Day 5, 1 hour post dose. The whole blood was placed on ice until samples were spun in a centrifuge to separate the plasma. Aqueous humor, conjunctiva, cornea, central retina, peripheral retina, central choroid, and peripheral choroid samples were collected following necropsy. Samples were then frozen at −70° C. or lower. For all Groups 1-15, plasma, central retina, central choroid, and cornea samples were assayed. For Group 5 only, samples were analyzed for Vitamin K3.
An analytical method for the analysis of Vitamin K3 was determined in plasma, central retina, central choroid, and cornea samples from Group 5 animals. A calibration curve prepared in control vitreous humor was used to determine the concentration of Vitamin K3. Internal standard (IS) responses were inconsistent for the central choroid and plasma samples. Thus, positive plasma results were likely due to the reduced IS response.

Compound: Cl.NC(=O)c1c(OCc2c(F)cc(Br)cc2F)nsc1NC(=O)NCCCCN1CCCC1 [Compound-I, 3-[(4-bromo-2,6-difluorophenyl)methoxy]-5-[[[[4-(1-pyrrolidinyl)butyl]amino]carbonyl]amino]-4-isothiazolecarboxamide hydrochloride]
- concentration at 1 h ([1]; aqueous humor (AH), read-out: Mean [AH]): 50.9 nM
- concentration at 1 h ([1]; plasma, read-out: [plasma]): 12.5 nM
- Cornea concentration above which ocular side effects were more consistently observed ([2]; discomfort, inflammation, corneal thinning): exceeded 100 μM
- Corneal tissue exposure ([2]; ophthalmic gel drops, topical ocular dosing): ≥ 100 µM
- inhibition at 0.3 µM ([3]; read-out: Mean % Inhibition at 300 nM Compound-I, 300 nM (170.67 ng/mL)): 103%
- inhibition at 1 µM ([3]; read-out: Mean % Inhibition at 1 μM Compound-I, 1 μM (568.9 ng/mL)): 99%
- Mean % Inhibition at 300 nM Compound-I [4]: completely inhibited
- Pathologic angiogenesis [5]: inhibit
- concentration at 1 h ([6]; Dutch Belted, rabbit, central choroid, topical, 1 mg/mL (30 μL per eye, bilateral), Group 7: 1 mg/mL suspension, 50 μm particles, TRIS 0.60%, glycerol 2%, HEC 0.2%, HPMC 0.08%, Vitamin K3 1 μM, pH 6, QD for 4 days, 1 hr post dose on Day 5, read-out: Central Choroid concentration): 59 nM
- concentration at 1 h ([6]; Dutch Belted, rabbit, central choroid, topical, 2 mg/mL (30 μL per eye, bilateral), Group 9: 2 mg/mL suspension, 50 μm particles, TRIS 0.60%, glycerol 2%, HEC 0.2%, HPMC 0.08%, Vitamin K3 1 μM, pH 6, QD for 4 days, 1 hr post dose on Day 5, read-out: Central Choroid concentration): 90.8 nM
- concentration at 1 h ([6]; Dutch Belted, rabbit, central choroid, topical, 4 mg/mL (30 μL per eye, bilateral), Group 5: 4 mg/mL suspension (Control), 30 μm particles (Table 19-1) / Native (≈50) (Table 19-2), TRIS 0.60%, glycerol 2%, HEC 0.2%, HPMC 0.08%, Vitamin K3 1 μM, pH 6, QD for 4 days, 1 hr post dose on Day 5, read-out: Central Choroid concentration): 129 nM
- concentration at 1 h ([6]; Dutch Belted, rabbit, central choroid, topical, 4 mg/mL, 30 μL per eye, pH 6, Group 1: 4 mg/mL Ophthalmic Solution, pH 6 (Control), QD for 4 days, 1 hr post dose on Day 5, read-out: Central Choroid concentration): 129 nM
- concentration at 1 h ([6]; Dutch Belted, rabbit, central choroid, topical, 4 mg/mL, 30 μL per eye, pH 6, read-out: Central Choroid concentration): 151 nM
- concentration at 1 h ([6]; Dutch Belted, rabbit, central choroid, topical, 30 μL per eye, Group 10: 2 mg/mL suspension, 50 μm particles, TRIS 0.60%, glycerol 2%, HEC 0.2%, HPMC 0.08%, Vitamin K3 1 μM, pH 6, BID for 4 days, 1 hr post dose on Day 5, read-out: Central Choroid concentration): 116 nM
- concentration at 1 h ([6]; Dutch Belted, rabbit, central choroid, topical, 30 μL per eye, Group 11: 6 mg/mL suspension, 50 μm particles, TRIS 0.60%, glycerol 2%, HEC 0.2%, HPMC 0.08%, Vitamin K3 1 μM, pH 6, QD for 4 days, 1 hr post dose on Day 5, read-out: Central Choroid concentration): 148 nM
- concentration at 1 h ([6]; Dutch Belted, rabbit, central choroid, topical, 30 μL per eye, Group 12: 10 mg/mL suspension, 50 μm particles, TRIS 0.60%, glycerol 2%, HEC 0.2%, HPMC 0.08%, Vitamin K3 1 μM, pH 6, QD for 4 days, 1 hr post dose on Day 5, read-out: Central Choroid concentration): 199 nM
- concentration at 1 h ([6]; Dutch Belted, rabbit, central retina, topical, 1 mg/mL (30 μL per eye, bilateral), Group 7: 1 mg/mL suspension, 50 μm particles, TRIS 0.60%, glycerol 2%, HEC 0.2%, HPMC 0.08%, Vitamin K3 1 μM, pH 6, QD for 4 days, 1 hr post dose on Day 5, read-out: Central Retina concentration): 25.6 nM
- concentration at 1 h ([6]; Dutch Belted, rabbit, central retina, topical, 2 mg/mL (30 μL per eye, bilateral), Group 9: 2 mg/mL suspension, 50 μm particles, TRIS 0.60%, glycerol 2%, HEC 0.2%, HPMC 0.08%, Vitamin K3 1 μM, pH 6, QD for 4 days, 1 hr post dose on Day 5, read-out: Central Retina concentration): 63.4 nM
- concentration at 1 h ([6]; Dutch Belted, rabbit, central retina, topical, 4 mg/mL (30 μL per eye, bilateral), Group 5: 4 mg/mL suspension (Control), 30 μm particles (Table 19-1) / Native (≈50) (Table 19-2), TRIS 0.60%, glycerol 2%, HEC 0.2%, HPMC 0.08%, Vitamin K3 1 μM, pH 6, QD for 4 days, 1 hr post dose on Day 5, read-out: Central Retina concentration): 44.2 nM
- concentration at 1 h ([6]; Dutch Belted, rabbit, central retina, topical, 4 mg/mL, 30 μL per eye, pH 6, Group 1: 4 mg/mL Ophthalmic Solution, pH 6 (Control), QD for 4 days, 1 hr post dose on Day 5, read-out: Central Retina concentration): 55.1 nM
- concentration at 1 h ([6]; Dutch Belted, rabbit, central retina, topical, 30 μL per eye, Group 11: 6 mg/mL suspension, 50 μm particles, TRIS 0.60%, glycerol 2%, HEC 0.2%, HPMC 0.08%, Vitamin K3 1 μM, pH 6, QD for 4 days, 1 hr post dose on Day 5, read-out: Central Retina concentration): 91.5 nM
- concentration at 1 h ([6]; Dutch Belted, rabbit, central retina, topical, 30 μL per eye, Group 12: 10 mg/mL suspension, 50 μm particles, TRIS 0.60%, glycerol 2%, HEC 0.2%, HPMC 0.08%, Vitamin K3 1 μM, pH 6, QD for 4 days, 1 hr post dose on Day 5, read-out: Central Retina concentration): 114 nM
- concentration at 1 h ([6]; Dutch Belted, rabbit, cornea, topical, 1 mg/mL (30 μL per eye, bilateral), Group 7: 1 mg/mL suspension, 50 μm particles, TRIS 0.60%, glycerol 2%, HEC 0.2%, HPMC 0.08%, Vitamin K3 1 μM, pH 6, QD for 4 days, 1 hr post dose on Day 5, read-out: Cornea concentration): 1240 nM
- concentration at 1 h ([6]; Dutch Belted, rabbit, cornea, topical, 2 mg/mL (30 μL per eye, bilateral), Group 9: 2 mg/mL suspension, 50 μm particles, TRIS 0.60%, glycerol 2%, HEC 0.2%, HPMC 0.08%, Vitamin K3 1 μM, pH 6, QD for 4 days, 1 hr post dose on Day 5, read-out: Cornea concentration): 2280 nM
- concentration at 1 h ([6]; Dutch Belted, rabbit, cornea, topical, 4 mg/mL (30 μL per eye, bilateral), Group 5: 4 mg/mL suspension (Control), 30 μm particles (Table 19-1) / Native (≈50) (Table 19-2), TRIS 0.60%, glycerol 2%, HEC 0.2%, HPMC 0.08%, Vitamin K3 1 μM, pH 6, QD for 4 days, 1 hr post dose on Day 5, read-out: Cornea concentration): 4470 nM
- concentration at 1 h ([6]; Dutch Belted, rabbit, cornea, topical, 4 mg/mL, 30 μL per eye, pH 6, Group 1: 4 mg/mL Ophthalmic Solution, pH 6 (Control), QD for 4 days, 1 hr post dose on Day 5, read-out: Cornea concentration): 14300 nM
- concentration at 1 h ([6]; Dutch Belted, rabbit, cornea, topical, 30 μL per eye, Group 10: 2 mg/mL suspension, 50 μm particles, TRIS 0.60%, glycerol 2%, HEC 0.2%, HPMC 0.08%, Vitamin K3 1 μM, pH 6, BID for 4 days, 1 hr post dose on Day 5, read-out: Cornea concentration): 5000 nM
- concentration at 1 h ([6]; Dutch Belted, rabbit, cornea, topical, 30 μL per eye, Group 11: 6 mg/mL suspension, 50 μm particles, TRIS 0.60%, glycerol 2%, HEC 0.2%, HPMC 0.08%, Vitamin K3 1 μM, pH 6, QD for 4 days, 1 hr post dose on Day 5, read-out: Cornea concentration): 7070 nM
- concentration at 1 h ([6]; Dutch Belted, rabbit, cornea, topical, 30 μL per eye, Group 12: 10 mg/mL suspension, 50 μm particles, TRIS 0.60%, glycerol 2%, HEC 0.2%, HPMC 0.08%, Vitamin K3 1 μM, pH 6, QD for 4 days, 1 hr post dose on Day 5, read-out: Cornea concentration): 24700 nM
- concentration at 1 h ([6]; Dutch Belted, rabbit, plasma, topical, 1 mg/mL (30 μL per eye, bilateral), Group 7: 1 mg/mL suspension, 50 μm particles, TRIS 0.60%, glycerol 2%, HEC 0.2%, HPMC 0.08%, Vitamin K3 1 μM, pH 6, QD for 4 days, 1 hr post dose on Day 5, read-out: Plasma concentration): 2.18 nM
- concentration at 1 h ([6]; Dutch Belted, rabbit, plasma, topical, 2 mg/mL (30 μL per eye, bilateral), Group 9: 2 mg/mL suspension, 50 μm particles, TRIS 0.60%, glycerol 2%, HEC 0.2%, HPMC 0.08%, Vitamin K3 1 μM, pH 6, QD for 4 days, 1 hr post dose on Day 5, read-out: Plasma concentration): 4.05 nM
- concentration at 1 h ([6]; Dutch Belted, rabbit, plasma, topical, 4 mg/mL (30 μL per eye, bilateral), Group 5: 4 mg/mL suspension (Control), 30 μm particles (Table 19-1) / Native (≈50) (Table 19-2), TRIS 0.60%, glycerol 2%, HEC 0.2%, HPMC 0.08%, Vitamin K3 1 μM, pH 6, QD for 4 days, 1 hr post dose on Day 5, read-out: Plasma concentration): 6.26 nM
- concentration at 1 h ([6]; Dutch Belted, rabbit, plasma, topical, 4 mg/mL, 30 μL per eye, pH 6, Group 1: 4 mg/mL Ophthalmic Solution, pH 6 (Control), QD for 4 days, 1 hr post dose on Day 5, read-out: Plasma concentration): 4.28 nM
- concentration at 1 h ([6]; Dutch Belted, rabbit, plasma, topical, 30 μL per eye, Group 11: 6 mg/mL suspension, 50 μm particles, TRIS 0.60%, glycerol 2%, HEC 0.2%, HPMC 0.08%, Vitamin K3 1 μM, pH 6, QD for 4 days, 1 hr post dose on Day 5, read-out: Plasma concentration): 7.72 nM
- concentration at 1 h ([6]; Dutch Belted, rabbit, plasma, topical, 30 μL per eye, Group 12: 10 mg/mL suspension, 50 μm particles, TRIS 0.60%, glycerol 2%, HEC 0.2%, HPMC 0.08%, Vitamin K3 1 μM, pH 6, QD for 4 days, 1 hr post dose on Day 5, read-out: Plasma concentration): 8.61 nM
- Plasma concentration ([6]; Group 2: 4 mg/mL suspension, 30 μm particles, TRIS 0.60%, glycerol 2%, HEC 0.2%, HPMC 0.08%, Vitamin K3 1 μM, pH 6, QD for 4 days, 1 hr post dose on Day 5): 4.64 nM
- concentration at 1 h ([6]; Group 2: 4 mg/mL suspension, 30 μm particles, TRIS 0.60%, glycerol 2%, HEC 0.2%, HPMC 0.08%, Vitamin K3 1 μM, pH 6, QD for 4 days, 1 hr post dose on Day 5, read-out: Central Choroid concentration): 135 nM
